Experimental data from patent US20030212123A1, “COX-2 selective carprofen for treating pain and inflammation in dogs” (Pfizer Inc., priority 1997, published 2003).
Where “and” joins values, the source holds several entries; their conditions need not be identical. Identical values can stand only once. Like-named read-outs stand apart in the source and are kept apart here.

Tests used:
canine COX-2 = molecular target: T1, canine COX-2 (Canis lupus familiaris, UniProt Q8SPQ9); assay: Canine COX-2 activity: LPS-treated DH82 canine histocytoma cells, PGE2 by EIA; type: cell-based, dog
T1 construct: host or cells: DH82 canine histocytoma cells, LPS-treated overnight
T1 sequence (Q8SPQ9 18-604): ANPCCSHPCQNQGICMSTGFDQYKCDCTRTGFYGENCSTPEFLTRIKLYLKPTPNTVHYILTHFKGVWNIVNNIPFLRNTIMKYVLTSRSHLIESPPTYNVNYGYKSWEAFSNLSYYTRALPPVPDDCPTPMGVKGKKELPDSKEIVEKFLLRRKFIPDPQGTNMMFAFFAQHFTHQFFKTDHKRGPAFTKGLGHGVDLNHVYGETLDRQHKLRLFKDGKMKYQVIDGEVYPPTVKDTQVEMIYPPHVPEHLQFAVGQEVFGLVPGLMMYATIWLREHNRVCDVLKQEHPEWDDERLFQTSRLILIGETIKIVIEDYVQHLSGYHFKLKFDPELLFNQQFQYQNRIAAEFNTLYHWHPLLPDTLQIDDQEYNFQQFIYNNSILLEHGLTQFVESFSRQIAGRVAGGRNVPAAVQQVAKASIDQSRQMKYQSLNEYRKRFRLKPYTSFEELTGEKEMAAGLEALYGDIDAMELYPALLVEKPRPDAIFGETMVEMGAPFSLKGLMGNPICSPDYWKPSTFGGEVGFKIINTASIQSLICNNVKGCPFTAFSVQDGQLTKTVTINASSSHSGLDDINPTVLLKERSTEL
Description: Protocol for Evaluation of Canine COX-2 Activity
A canine histocytoma (macrophage-like) cell line from the American Type Culture Collection designated as DH82, was used in setting up the protocol for evaluating the COX-2 inhibition activity of various test drug compounds. There was added to flasks of these cells 10 μg/mL of LPS, after which the flask cultures were incubated overnight. The same test drug compound dilutions as described above for the COX-1 protocol were used for the COX-2 assay and were prepared the day before the assay was carried out. […] The test sample suspensions were incubated for 1 hr and then centrifuged at 1000 rpm for 10 min at 4° C., after which 50 μl aliquots of each test drug sample were delivered to EIA plates. The EIA was performed for prostaglandin E2 (PGE2), and the pg/mL concentration of PGE2 was calculated from the standard line included on each plate. […] The results were averaged, and a single COX-1:COX-2 ratio was calculated.

COX-2 = COX-2 (Canis lupus familiaris, UniProt Q8SPQ9); assay: in vivo; conditions: for PGE2 Pg/mL/Well: individual dogs; for inhibition at 2 mg/kg / inhibition at 4 mg/kg: dog, po
Description: A zero-hour blood sample was collected from all dogs in the study prior to dosing, followed by 2- and 4-hour post-dose blood sample collections. Test tubes were prepared containing 2 μL of lipopolysaccharide (LPS) to give a 10 μg/mL final concentration. Untreated test tubes were used as controls. A 500 μL sample of blood was added to each of the above-described test tubes, after which they were incubated at 37° C. overnight. After incubation […] of EDTA was added to give a final concentration of 0.3%. The incubated samples were centrifuged at 4° C. and the resulting plasma sample of 200 μL was collected and stored at −20° C. in propylene 96-well plates. Enzyme immunoassay (EIA) kits available from Cayman were used to measure production of PGE2, with endpoint determination by colorimetry. Plasma samples were diluted to 1/750 for PGE2.

[1] = Total plasma carprofen concentration by chiral HPLC, Example 3; type: in vivo, dog; conditions: individual dogs
From the text: (§1) The ether layer was separated, then back-extracted with 0.005 M Na2CO3, after which the organic phase was discarded by aspiration. The aqueous phase was buffered with 0.05 M citric acid pH 5.1, then was again extracted with diethyl ether:dichloromethane. The ether was then transferred to clean tubes, evaporated under a stream of nitrogen, and the residue reconstituted in HPLC mobile phase for analysis.
as §1

[2] = Systemic clearance estimated from oral pharmacokinetics; type: in vivo, dog; conditions: estimated from pharmacokinetics after oral 2 mg/lb to dogs, F assumed 1, AUC extrapolated to infinity
Description: where Css is the steady state plasma carprofen concentration, R0 is the input rate, and Cl is the systemic clearance.
where F is the bioavailability (assumed to be 1 for an implant), D is the oral dose, and AUC is the average area under the plasma carprofen concentration vs. time curve, extrapolated to infinity.
A total dose of 3.6 mg/lb or 8.4 mg/lb or 36 mg/lb would be required for 3, 7, or 30 day therapy, respectively. In summary, an implant containing 8.4 mg carprofen per lb body weight, releasing carprofen at a rate of 50 μg per lb of body weight per hr, maintains a plasma carprofen concentration of 10 μg/mL for 7 days. This will maintain 80% COX-2 inhibition for 7 days.

[3] = molecular target: COX-2 (derived from lipopolysaccharide stimulated J774.2 macrophages) (Mus musculus, UniProt Q05769); conditions: cited from earlier work
[4] = inspection of plot of plasma level vs % COX-2 inhibition (Example 3 data)

Sequence of COX-2 (derived from lipopolysaccharide stimulated J774.2 macrophages) (Q05769 18-604): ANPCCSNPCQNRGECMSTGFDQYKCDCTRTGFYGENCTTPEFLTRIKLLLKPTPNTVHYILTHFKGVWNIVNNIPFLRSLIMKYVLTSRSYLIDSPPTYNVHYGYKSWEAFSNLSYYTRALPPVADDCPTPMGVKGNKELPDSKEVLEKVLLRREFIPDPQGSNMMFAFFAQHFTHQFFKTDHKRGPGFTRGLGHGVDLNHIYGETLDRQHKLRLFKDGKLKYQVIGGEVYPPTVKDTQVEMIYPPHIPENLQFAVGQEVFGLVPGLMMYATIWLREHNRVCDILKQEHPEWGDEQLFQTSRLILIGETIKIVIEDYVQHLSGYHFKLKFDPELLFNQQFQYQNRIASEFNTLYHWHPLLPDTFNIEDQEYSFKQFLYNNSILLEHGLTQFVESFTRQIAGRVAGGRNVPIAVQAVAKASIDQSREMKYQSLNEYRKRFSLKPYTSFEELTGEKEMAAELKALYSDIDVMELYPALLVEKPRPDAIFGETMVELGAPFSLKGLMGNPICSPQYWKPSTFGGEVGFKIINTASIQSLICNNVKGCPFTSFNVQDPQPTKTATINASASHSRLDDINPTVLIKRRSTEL

CC(C(=O)O)c1ccc2c(c1)[nH]c1ccc(Cl)cc12 (racemic) [Carprofen (rac.), 6-chloro-α-methyl-9H-carbazole-2-acetic acid]
IC50 (canine COX-2): 102 nM
PGE2 Pg/mL/Well (COX-2; 2 mg/kg PO tablet, 0-hour (pre-dose)): 293 Pg/mL/Well and 541 Pg/mL/Well and 409 Pg/mL/Well
PGE2 Pg/mL/Well (COX-2; 4 mg/kg PO tablet, 0-hour (pre-dose)): 471 Pg/mL/Well and 393 Pg/mL/Well and 622 Pg/mL/Well
PGE2 Pg/mL/Well (COX-2; 4 mg/kg PO tablet, 2-hour post-dose): 25 Pg/mL/Well and 21 Pg/mL/Well and 14 Pg/mL/Well
PGE2 Pg/mL/Well (COX-2; 4 mg/kg PO tablet, 4-hour post-dose): 20 Pg/mL/Well and 25 Pg/mL/Well and 14 Pg/mL/Well
inhibition at 2 mg/kg (COX-2; read-out: COX-2 activity Percent Inhibition, 2 mg/kg PO tablet, 2-hour, based on each dog's zero hour value): 88%
inhibition at 2 mg/kg (COX-2; read-out: COX-2 activity Percent Inhibition, 2 mg/kg PO tablet, 4-hour, based on each dog's zero hour value): 77%
inhibition at 4 mg/kg (COX-2; read-out: COX-2 activity Percent Inhibition, 4 mg/kg PO tablet, 2-hour, based on each dog's zero hour value): 95%
inhibition at 4 mg/kg (COX-2; read-out: COX-2 activity Percent Inhibition, 4 mg/kg PO tablet, 4-hour, based on each dog's zero hour value): 96%
plasma carprofen concentration at which 80% COX-2 inhibition occurred (COX-2; [4]): approximately 10 μg/mL
plasma carprofen concentration at which 90% COX-2 inhibition occurred (COX-2; [4]): approximately 20 μg/mL
Plasma concentration ([1]; 2 mg/kg PO tablet, 2-hour): 21.9 µg/mL and 8.6 µg/mL and 17.2 µg/mL
Plasma concentration ([1]; 2 mg/kg PO tablet, 4-hour): 13.4 µg/mL and 5.7 µg/mL and 10.6 µg/mL
Plasma concentration ([1]; 4 mg/kg PO tablet, 2-hour): 29.9 µg/mL and 29.0 µg/mL
Plasma concentration ([1]; 4 mg/kg PO tablet, 4-hour): 21.1 µg/mL and 27.0 µg/mL
concentration at 2 h ([1]; dog, plasma, oral, 4 mg/kg, 4 mg/kg PO tablet, 2-hour): 37600 ng/mL
concentration at 4 h ([1]; dog, plasma, oral, 4 mg/kg, 4 mg/kg PO tablet, 4-hour): 29100 ng/mL
systemic clearance Cl [2]: 5 mL/hr per lb body weight
IC50 ([3]; read-out: IC50 (μM) COX-2, as shown by Battistini et al.): 11 µM
IC50 ([3]; read-out: IC50 (μg/mL) COX-2, n=9, LPS stimulated J774.2 macrophages): 11 µM
